The values below are quoted from earlier work in patent US20260317295A1, “NAV1.8 INHIBITORS, PREPARATION METHOD THEREFOR AND USE THEREOF” (SHANGHAI INSTITUTE OF MATERIA MEDICA, CHINESE ACADEMY OF …, priority 2023, published 2026).

In data set [1] the test system is Nav1.8. Conditions: rodents.
The subject of data set [2] is Nav1.8. Conditions: rat, STZ-induced diabetic neuropathy, intraperitoneal or intraplantar.
The test system of data set [3] is Nav1.8. Conditions: L7-1.8TG transgenic mice.

As for `COc1cc(NC(=O)c2ccc(-c3ccc(Cl)cc3)o2)cc(OC)c1` [Compound A-803467], the pain responses result in data set [1] is on record as “effectively alleviate pain responses”. Moreover, the pain behavioral responses entry in data set [2] is “dose-dependently alleviate the animals' pain behavioral responses”.
Take `CNC(=O)c1ccc(-c2cc(Cl)cc(Cl)c2Cl)c(N)n1` [PF-01247324]: the MS behaviors result in data set [3] is recorded as “alleviate the MS behaviors”.
